Source: US5922708A, “Heteroaryl-oxazolidinones” (Bayer Aktiengesellschaft, priority 1996, dated 1999)
≈ marks a conversion by molar mass, not a printed value. Like-named read-outs stand apart in the source and are kept apart here.

How the values were obtained:
Assay type in all cases: cell-based
Staph. 9TV = experiment: MIC by serial dilution method on Iso-Sensitest agar
Description: (§1) The minimum inhibitory concentrations (MIC) were determined by the serial dilution method on Iso-Sensitest agar (Oxoid). For each test substance a series of agar plates were prepared which contained decreasing concentrations of the active substance, obtained by twofold dilution from one plate to the next. The agar plates were inoculated with a Multipoint inoculator (Denley). Inoculation was effected using overnight cultures of the pathogens which had been diluted beforehand so that each inoculation point contained ca. 10^4 colony forming particles. The inoculated agar plates were incubated at 37° C. and the bacterial growth was evaluated after ca. 20 hours. The MIC value (μg/ml) indicates the lowest active substance concentration at which no growth was detectable with the naked eye.

Staph. 25701 = experiment: as above
Description: as §1

Staph. 133 = experiment: as above
Description: as §1

Psdm. Bonn = experiment: as above
Description: as §1

Staph. 48N = experiment: as above
Description: as §1

Klebs. 57 USA = experiment: as above
Description: as §1

E. coli Neumann = experiment: as above; conditions: Escherichia coli
Description: as §1

[1] = tested on: Mycobacterium smegmatis DSM 43078; experiment: MIC for rapidly growing mycobacteria, broth microdilution method; conditions: Mycolicibacterium smegmatis, DSM43078, inoculum 4.20E + 04 [/ml], 37° C., 2-4 days
Description: For rapidly growing mycobacteria the MIC were determined on the basis of the broth microdilution method described by Swenson [cf. J. M. Swenson, C. Thomberry, U. A. Silcox, Rapidly growing mycobacteria. Testing of susceptibility to 34 antimicrobial agents by broth microdilution. Antimicrobial Agents and Chemotherapy, vol. 22, 186-192 (1982)]. The brain-heart extract medium treated with 0.1 vol.% of Tween 80 was an exception.
The mycobacterial strains used were obtained from the DSM (Deutsche Sammlung von Mikroorganismen (German Collection of Microorganisms), Brunswick). They were incubated in a moist chamber at 37° C.
The MIC values were evaluated after 2-4 days, when the preparation-free controls were opaque due to growth.

[2] = Staph. 9TV, agar, 37° C., ca. 20 hours, read-out: MIC
[3] = Staph. 25701, agar, 37° C., ca. 20 hours, read-out: MIC
[4] = Staph. 133, agar, 37° C., ca. 20 hours, read-out: MIC
[5] = Staph. 48N, agar, 37° C., ca. 20 hours, read-out: MIC
[6] = Klebs. 57 USA, agar, 37° C., ca. 20 hours, read-out: MIC
[7] = E. coli Neumann, agar, 37° C., ca. 20 hours, read-out: MIC

MIC (Psdm. Bonn; Psdm. Bonn, agar, 37° C., ca. 20 hours, read-out: MIC) | MIC [1] | Structure (SMILES) | MIC (Staph. 9TV; 20 h) | MIC (Staph. 25701; 20 h) | MIC (Staph. 133; 20 h) | MIC (Psdm. Bonn; 20 h) | MIC (Staph. 48N; 20 h) | MIC (Klebs. 57 USA; 20 h) | MIC (E. coli Neumann; 20 h) | MIC (Staph. 9TV; [2]) | MIC (Staph. 25701; [3]) | MIC (Staph. 133; [4]) | MIC (Staph. 48N; [5]) | MIC (Klebs. 57 USA; [6]) | MIC (E. coli Neumann; [7])
– | – | O=C(CF)NC[C@H]1CN(c2ccc(-c3cccnc3)s2)C(=O)O1 [Example 18] | 1 µg/mL (≈ 2.98 µM) | 4 µg/mL (≈ 11.9 µM) | 2 µg/mL (≈ 5.96 µM) | > 64 µg/mL | 4 µg/mL (≈ 11.9 µM) | > 64 µg/mL | > 64 µg/mL | – | – | – | – | – | –
> 64 µg/mL | – | CCCOC(=O)NC[C@H]1CN(c2ccc(-c3cccnc3)s2)C(=O)O1 [Example 20] | – | – | – | – | – | – | – | 2 µg/mL (≈ 5.53 µM) | 2 µg/mL (≈ 5.53 µM) | 2 µg/mL (≈ 5.53 µM) | 2 µg/mL (≈ 5.53 µM) | > 64 µg/mL | > 64 µg/mL
– | – | COC(=O)NC[C@H]1CN(c2ccc(Br)c(C)n2)C(=O)O1 [Example 25] | – | – | – | – | – | – | – | 1 µg/mL (≈ 2.91 µM) | 2 µg/mL (≈ 5.81 µM) | 2 µg/mL (≈ 5.81 µM) | 2 µg/mL (≈ 5.81 µM) | > 64 µg/mL | > 64 µg/mL
– | 2 µg/mL | NNC(=O)c1ccncc1 [Isoniazid] | – | – | – | – | – | – | – | – | – | – | – | – | –
